From patent US10227357B2, “Compounds and methods for kinase modulation, and indications therefor” (Plexxikon Inc., priority 2012, dated 2019) come the findings set out here.

In one assay the target is T1, c-kit kinase (Homo sapiens, UniProt P10721).
T1 construct: The c-kit (or kinase domain thereof) is an active kinase in AlphaScreen; poly-Histidine tag (in-house protein only) (cleaved yes); host or cells: E. coli BL21(DE3)RIL, co-expressed with PTP1B
Put plainly: c-Kit biochemical assay, AlphaScreen, 10 μM ATP. The following applies: c-kit biochemical inhibitory activity; read-out: Biochemical activity (IC50 μM) Kit. In a few lines: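 His-tagged c-Kit expressed in E. coli with co-expressed PTP1B (dephosphorylated), tag removed; 0.1 ng per reaction with biotinylated-peptide substrate in 50 mM HEPES pH 7.2, 5 mM MgCl2, 5 mM MnCl2, 5% DMSO, 10 μM ATP, 1 h at room temperature. Phosphorylation detected by AlphaScreen (streptavidin donor, PY20 acceptor beads); IC50 from 8-point 1:3 dilution series.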

A further assay concerns the target T2, c-kit mutant D816V (Homo sapiens, UniProt P10721, D816V/DEL694-753).
T2 construct: residues 551-934, kinase insertion domain residues 694-753 deleted; 6x-histidine (N); made in house; host or cells: E. coli Arctic Express (DE3) RIL (Stratagene)
Put plainly: c-Kit mutant D816V biochemical assay, AlphaScreen. The following applies: c-kit D816V biochemical inhibitory activity; read-out: Biochemical activity (IC50 μM) Kit D816V. In a few lines:
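Eight-point, threefold compound series incubated 30 min at room temperature with E. coli-produced D816V kinase, 10 μM ATP, Mg2+/Mn2+ HEPES buffer pH 7.2 and 5% DMSO. After EDTA stop, streptavidin and anti-phosphotyrosine (PY20) AlphaScreen beads gave the read-out, and IC50 was fitted from the concentration–signal curve.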

Each structure is given as a SMILES string.

T2 sequence (P10721 with tags, fused parts or gaps DEL694-753/D816V): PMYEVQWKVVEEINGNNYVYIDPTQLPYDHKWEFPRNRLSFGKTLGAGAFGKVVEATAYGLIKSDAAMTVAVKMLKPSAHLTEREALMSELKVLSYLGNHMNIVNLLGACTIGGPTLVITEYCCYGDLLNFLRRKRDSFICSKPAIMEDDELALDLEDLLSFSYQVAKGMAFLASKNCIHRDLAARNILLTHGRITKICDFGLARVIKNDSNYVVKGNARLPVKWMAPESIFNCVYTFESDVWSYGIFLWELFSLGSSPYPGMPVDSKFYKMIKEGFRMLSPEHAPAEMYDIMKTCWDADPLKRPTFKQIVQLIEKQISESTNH
T1 sequence (P10721 26-976): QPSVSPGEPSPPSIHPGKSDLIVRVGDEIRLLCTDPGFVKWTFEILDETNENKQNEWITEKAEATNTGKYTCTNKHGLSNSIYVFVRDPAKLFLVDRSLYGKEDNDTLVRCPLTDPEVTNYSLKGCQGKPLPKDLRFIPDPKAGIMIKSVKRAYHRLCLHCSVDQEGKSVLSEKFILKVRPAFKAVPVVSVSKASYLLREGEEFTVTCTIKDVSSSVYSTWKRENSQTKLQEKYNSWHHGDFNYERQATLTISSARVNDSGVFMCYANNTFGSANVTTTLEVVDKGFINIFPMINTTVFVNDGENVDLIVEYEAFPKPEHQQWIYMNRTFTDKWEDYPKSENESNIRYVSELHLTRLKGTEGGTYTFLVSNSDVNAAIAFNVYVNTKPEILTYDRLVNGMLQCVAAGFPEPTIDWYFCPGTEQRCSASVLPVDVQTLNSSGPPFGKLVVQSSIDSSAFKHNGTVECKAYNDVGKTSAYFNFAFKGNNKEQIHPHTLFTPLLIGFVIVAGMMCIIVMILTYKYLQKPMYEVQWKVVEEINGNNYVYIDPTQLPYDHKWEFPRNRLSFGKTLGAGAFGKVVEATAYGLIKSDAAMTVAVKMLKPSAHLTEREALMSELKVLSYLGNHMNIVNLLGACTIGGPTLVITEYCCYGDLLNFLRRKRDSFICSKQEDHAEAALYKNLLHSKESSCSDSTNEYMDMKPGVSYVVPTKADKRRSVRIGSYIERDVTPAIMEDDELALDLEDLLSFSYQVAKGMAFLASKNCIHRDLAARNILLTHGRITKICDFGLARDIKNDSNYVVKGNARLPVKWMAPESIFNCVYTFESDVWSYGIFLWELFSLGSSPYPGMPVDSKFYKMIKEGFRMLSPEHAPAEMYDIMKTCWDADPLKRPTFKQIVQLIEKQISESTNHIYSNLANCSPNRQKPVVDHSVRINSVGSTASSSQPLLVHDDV

As to `Cc1nc(-c2cccc(NC(=O)N3CCN(c4ncnc5[nH]ccc45)CC3)c2)no1` [P-0151, N-[3-(5-methyl-1,2,4-oxadiazol-3-yl)phenyl]-4-(7H-pyrrolo[2,3-d]pyrimidin-4-yl)piperazine-1-carboxamide], the IC50 at c-kit kinase and on c-kit mutant D816V was 10 to 200 µM in each case.

Take `O=C(NCc1ccccc1Cl)N1CCN(c2ncnc3[nH]c(-c4ccc(F)cc4)cc23)CC1` [P-0154, N-[(2-chlorophenyl)methyl]-4-[6-(4-fluorophenyl)-7H-pyrrolo[2,3-d]pyrimidin-4-yl]piperazine-1-carboxamide]: the IC50 on c-kit kinase was 10 to 200 µM; on c-kit mutant D816V, 1 to 10 µM.

As for `C[C@H](NC(=O)N1CCN(c2ncnc3[nH]c(-c4ccc(F)cc4)cc23)CC1)c1cccc2ccccc12` [P-0155, 4-[6-(4-fluorophenyl)-7H-pyrrolo[2,3-d]pyrimidin-4-yl]-N-[(1S)-1-(1-naphthyl)ethyl]piperazine-1-carboxamide], the IC50 on c-kit kinase fell in the range of 1 to 10 µM; at c-kit mutant D816V it was 0.0001 to 1 µM.

Turning to `COc1ccc(CNC(=O)N2CCN(c3ncnc4[nH]c(-c5ccc(F)cc5)cc34)CC2)cc1` [P-0157, 4-[6-(4-fluorophenyl)-7H-pyrrolo[2,3-d]pyrimidin-4-yl]-N-[(4-methoxyphenyl)methyl]piperazine-1-carboxamide], the IC50 at c-kit kinase and on c-kit mutant D816V was 10 to 200 µM in each case.

For `O=C(Nc1ccc(F)c(Cl)c1)N1CCN(c2ncnc3[nH]ccc23)CC1` [P-0165, N-(3-chloro-4-fluoro-phenyl)-4-(7H-pyrrolo[2,3-d]pyrimidin-4-yl)piperazine-1-carboxamide], the IC50 at c-kit kinase is 1 to 10 µM; at c-kit mutant D816V, 10 to 200 µM.

As for `O=C(Nc1cccc(C(F)(F)F)c1)N1CCN(c2ncnc3[nH]ccc23)CC1` [P-0167, 4-(7H-pyrrolo[2,3-d]pyrimidin-4-yl)-N-[3-(trifluoromethyl)phenyl]piperazine-1-carboxamide], the IC50 at c-kit kinase and on c-kit mutant D816V was 10 to 200 µM throughout.

For `O=C(Nc1cccc(Cl)c1)N1CCN(c2ncnc3[nH]ccc23)CC1` [P-0168, N-(3-chlorophenyl)-4-(7H-pyrrolo[2,3-d]pyrimidin-4-yl)piperazine-1-carboxamide], the IC50 on c-kit kinase and on c-kit mutant D816V was 10 to 200 µM throughout.

As to `COc1ccc(CCNC(=O)N2CCN(c3ncnc4[nH]ccc34)CC2)cc1` [P-0169, N-[2-(4-methoxyphenyl)ethyl]-4-(7H-pyrrolo[2,3-d]pyrimidin-4-yl)piperazine-1-carboxamide], the IC50 on c-kit kinase and at c-kit mutant D816V was 10 to 200 µM throughout.

For the compound `O=C(NCc1ccc(Cl)cc1)N1CCN(c2ncnc3[nH]ccc23)CC1` [P-0170, N-[(4-chlorophenyl)methyl]-4-(7H-pyrrolo[2,3-d]pyrimidin-4-yl)piperazine-1-carboxamide], the IC50 on c-kit kinase lay in the range of 1 to 10 µM; at c-kit mutant D816V, 10 to 200 µM.

Consider `O=C(Nc1ccc(Cl)cc1)N1CCN(c2ncnc3[nH]ccc23)CC1` [P-0171, N-(4-chlorophenyl)-4-(7H-pyrrolo[2,3-d]pyrimidin-4-yl)piperazine-1-carboxamide], for which the IC50 on c-kit kinase and at c-kit mutant D816V was 10 to 200 µM throughout.

As to `O=C(NC1CCCC1)N1CCN(c2ncnc3[nH]ccc23)CC1` [P-0177, N-cyclopentyl-4-(7H-pyrrolo[2,3-d]pyrimidin-4-yl)piperazine-1-carboxamide], the IC50 at c-kit kinase lay within 10 to 200 µM; on c-kit mutant D816V, 0.0001 to 1 µM.

As to `CCOc1ccc(NC(=O)N2CCN(c3ncnc4[nH]c(C)cc34)CC2)cc1` [P-0181, N-(4-ethoxyphenyl)-4-(6-methyl-7H-pyrrolo[2,3-d]pyrimidin-4-yl)piperazine-1-carboxamide], the IC50 on c-kit kinase and at c-kit mutant D816V was 10 to 200 µM in each case.

As for `O=C(NCc1ccc(F)cc1)N1CCN(c2ncnc3[nH]ccc23)CC1` [P-0182, N-[(4-fluorophenyl)methyl]-4-(7H-pyrrolo[2,3-d]pyrimidin-4-yl)piperazine-1-carboxamide], the IC50 on c-kit kinase and on c-kit mutant D816V was 10 to 200 µM throughout.

For the compound `O=C(Nc1ccc(F)cc1)N1CCN(c2ncnc3[nH]ccc23)CC1` [P-0183, N-(4-fluorophenyl)-4-(7H-pyrrolo[2,3-d]pyrimidin-4-yl)piperazine-1-carboxamide], the IC50 at c-kit kinase lay within 1 to 10 µM; at c-kit mutant D816V, 10 to 200 µM.

Turning to `C[C@H](NC(=O)N1CCN(c2ncnc3[nH]c(-c4ccc(Cl)cc4)cc23)CC1)c1ccc(Cl)cc1` [P-0188, N-[(1S)-1-(4-chlorophenyl)ethyl]-4-[6-(4-chlorophenyl)-7H-pyrrolo[2,3-d]pyrimidin-4-yl]piperazine-1-carboxamide], the IC50 was in the range of 1 to 10 µM on c-kit kinase and 0.0001 to 1 µM at c-kit mutant D816V.

As for `O=C(NCc1ccc(Cl)cc1)N1CCN(c2ncnc3[nH]c(-c4ccc(Cl)cc4)cc23)CC1` [P-0212, N-[(4-chlorophenyl)methyl]-4-[6-(4-chlorophenyl)-7H-pyrrolo[2,3-d]pyrimidin-4-yl]piperazine-1-carboxamide], the IC50 lay within 1 to 10 µM on c-kit kinase and 0.0001 to 1 µM at c-kit mutant D816V.

For `O=C(NCc1ccc(F)cc1)N1CCN(c2ncnc3[nH]c(-c4ccc(Cl)cc4)cc23)CC1` [P-0213, 4-[6-(4-chlorophenyl)-7H-pyrrolo[2,3-d]pyrimidin-4-yl]-N-[(4-fluorophenyl)methyl]piperazine-1-carboxamide], the IC50 at c-kit kinase and on c-kit mutant D816V was 10 to 200 µM in each case.

Turning to `CCOc1ccc(NC(=O)N2CCN(c3ncnc4[nH]c(-c5ccc(Cl)cc5)cc34)CC2)cc1` [P-0214, 4-[6-(4-chlorophenyl)-7H-pyrrolo[2,3-d]pyrimidin-4-yl]-N-(4-ethoxyphenyl)piperazine-1-carboxamide], the IC50 on c-kit kinase and at c-kit mutant D816V was 0.0001 to 1 µM throughout.

Turning to `O=C(NCc1ccc(Cl)cc1)N1CCN(c2ncnc3[nH]c(-c4ccccc4)cc23)CC1` [P-0215, N-[(4-chlorophenyl)methyl]-4-(6-phenyl-7H-pyrrolo[2,3-d]pyrimidin-4-yl)piperazine-1-carboxamide], the IC50 on c-kit kinase and on c-kit mutant D816V was 10 to 200 µM throughout.

As to `COc1ccc(S(=O)(=O)N2CCN(c3ncnc4[nH]ccc34)CC2)cc1` [P-0217, 4-[4-(4-methoxyphenyl)sulfonylpiperazin-1-yl]-7H-pyrrolo[2,3-d]pyrimidine], the half-inhibitory concentration (IC50) at c-kit kinase was in the range of 1 to 10 µM; at c-kit mutant D816V, 10 to 200 µM.

Regarding `CCCNC(=O)N1CCN(c2ncnc3[nH]c(-c4cccnc4)cc23)CC1` [P-0218, N-propyl-4-[6-(3-pyridyl)-7H-pyrrolo[2,3-d]pyrimidin-4-yl]piperazine-1-carboxamide], the IC50 at c-kit kinase fell in the range of 10 to 200 µM; on c-kit mutant D816V it was 1 to 10 µM.

On to `O=C(Nc1ccccc1Cl)N1CCN(c2ncnc3[nH]c(-c4cccnc4)cc23)CC1` [P-0219, N-(2-chlorophenyl)-4-[6-(3-pyridyl)-7H-pyrrolo[2,3-d]pyrimidin-4-yl]piperazine-1-carboxamide], for which the IC50 was 10 to 200 µM on c-kit kinase and 1 to 10 µM on c-kit mutant D816V.

In the case of `O=C(Nc1ccccc1Cl)N1CCN(c2ncnc3[nH]c(-c4cccnc4)cc23)CC1` [P-0220, N-(2-chlorophenyl)-4-[6-(3-pyridyl)-7H-pyrrolo[2,3-d]pyrimidin-4-yl]piperazine-1-carboxamide], the concentration for half-maximal inhibition (IC50) on c-kit kinase and on c-kit mutant D816V was 0.0001 to 1 µM throughout.

With `CCOc1cccc(NC(=O)N2CCN(c3ncnc4[nH]c(-c5cccnc5)cc34)CC2)c1` [P-0221, N-(3-ethoxyphenyl)-4-[6-(3-pyridyl)-7H-pyrrolo[2,3-d]pyrimidin-4-yl]piperazine-1-carboxamide], the figures for the IC50 on c-kit kinase and on c-kit mutant D816V were 1 to 10 µM and 0.0001 to 1 µM, respectively.

Turning to `O=C(NCc1ccc(F)cc1)N1CCN(c2ncnc3[nH]c(-c4cccnc4)cc23)CC1` [P-0222, N-[(4-fluorophenyl)methyl]-4-[6-(3-pyridyl)-7H-pyrrolo[2,3-d]pyrimidin-4-yl]piperazine-1-carboxamide], the IC50 at c-kit kinase and at c-kit mutant D816V was 1 to 10 µM throughout.

As to `O=C(Nc1cccc(C(F)(F)F)c1)N1CCN(c2ncnc3[nH]c(-c4cccnc4)cc23)CC1` [P-0223, 4-[6-(3-pyridyl)-7H-pyrrolo[2,3-d]pyrimidin-4-yl]-N-[3-(trifluoromethyl)phenyl]piperazine-1-carboxamide], the IC50 at c-kit kinase and on c-kit mutant D816V was 0.0001 to 1 µM throughout.

Take `O=C(Nc1ccc(OC(F)(F)F)cc1)N1CCN(c2ncnc3[nH]c(-c4cccnc4)cc23)CC1` [P-0224, 4-[6-(3-pyridyl)-7H-pyrrolo[2,3-d]pyrimidin-4-yl]-N-[4-(trifluoromethoxy)phenyl]piperazine-1-carboxamide]: the IC50 at c-kit kinase and at c-kit mutant D816V was 0.0001 to 1 µM each time.

Consider `CCOc1ccc(NC(=O)N2CCN(c3ncnc4[nH]c(-c5cccnc5)cc34)CC2)cc1` [P-0225, N-(4-ethoxyphenyl)-4-[6-(3-pyridyl)-7H-pyrrolo[2,3-d]pyrimidin-4-yl]piperazine-1-carboxamide], for which the IC50 on c-kit kinase is 10 to 200 µM; on c-kit mutant D816V it was 1 to 10 µM.

In the case of `O=C(NCc1ccc(F)cc1)N1CCN(c2ncnc3[nH]cc(-c4ccccc4)c23)CC1` [P-0226, N-[(4-fluorophenyl)methyl]-4-(5-phenyl-7H-pyrrolo[2,3-d]pyrimidin-4-yl)piperazine-1-carboxamide], the figures for the IC50 on c-kit kinase and on c-kit mutant D816V were 1 to 10 µM and 10 to 200 µM, respectively.
